Data published in US8952024B2, “Herbicidal pyrimidone derivatives” (E I du Pont de Nemours and Company, priority 2009, dated 2015).
Like-named read-outs stand apart in the source and are kept apart here.

Experiments:
Assay type in all cases: in vivo
[1] = test system: barnyardgrass (Echinochloa crus-galli); experiment: Test A pre-/postemergence plant response; conditions: Echinochloa crus-galli, 240 h; for pest or weed control at 125 g/ha: 125 g ai/ha; for pest or weed control at 500 g/ha: 500 g ai/ha
Outline: (§1)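 Formulated test chemicals (non-phytotoxic solvent, surfactant) were sprayed onto soil right after planting and simultaneously onto young plants at one to two leaves, 2 to 10 cm tall. Plants stayed in the greenhouse about ten days; injury was then visually scored against untreated controls, from 0 (no effect) to 100 (complete control).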

[2] = test system: corn (Zea mays); experiment: Test A pre-/postemergence plant response; conditions: Zea mays, 240 h; for Corn plant response rating (crop injury, 0 = no effect, 100 = complete kill) at 500 g/ha: 500 g ai/ha
Outline: as §1

[3] = test system: giant foxtail (Setaria faberii); experiment: Test A pre-/postemergence plant response; conditions: Setaria faberi, 240 h; for pest or weed control at 125 g/ha: 125 g ai/ha; for pest or weed control at 500 g/ha: 500 g ai/ha
Outline: as §1

[4] = test system: large crabgrass (Digitaria sanguinalis); experiment: Test A pre-/postemergence plant response; conditions: Digitaria sanguinalis, 240 h; for pest or weed control at 125 g/ha: 125 g ai/ha; for pest or weed control at 500 g/ha: 500 g ai/ha
Outline: as §1

[5] = test system: morningglory (Ipomoea spp.); experiment: Test A pre-/postemergence plant response; conditions: Ipomoea, 240 h; for pest or weed control at 125 g/ha: 125 g ai/ha; for pest or weed control at 500 g/ha: 500 g ai/ha
Outline: as §1

[6] = test system: pigweed (Amaranthus retroflexus); experiment: Test A pre-/postemergence plant response; conditions: Amaranthus retroflexus, 240 h; for pest or weed control at 125 g/ha: 125 g ai/ha
Outline: as §1

[7] = test system: velvetleaf (Abutilon theophrasti); experiment: Test A pre-/postemergence plant response; conditions: Abutilon theophrasti, 240 h; for pest or weed control at 125 g/ha: 125 g ai/ha; for pest or weed control at 500 g/ha: 500 g ai/ha
Outline: as §1

[8] = test system: wheat (Triticum aestivum); experiment: Test A pre-/postemergence plant response; conditions: Triticum aestivum, 240 h; for plant injury at 125 g/ha: 125 g ai/ha; for plant injury at 500 g/ha: 500 g ai/ha
Outline: as §1

[9] = test system: barnyardgrass (Echinochloa crus-galli); experiment: Test B flooded paddy test; conditions: Echinochloa crus-galli, 360 h
Outline: (§2)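 Post-flood paddy application: compounds are introduced into water 3 cm deep over the soil, reaching plants at the 2-leaf stage. The water level is maintained, and after 13–15 days under greenhouse conditions, response is judged by eye relative to controls, where 100 means complete control.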

[10] = test system: ducksalad (Heteranthera limosa); experiment: Test B flooded paddy test; conditions: Heteranthera limosa, 360 h
Outline: as §2

[11] = test system: rice (Oryza sativa); experiment: Test B flooded paddy test; conditions: Oryza sativa
Outline: as §2

[12] = test system: umbrella sedge (Cyperus difformis); experiment: Test B flooded paddy test; conditions: Cyperus difformis, 360 h
Outline: as §2

`CCn1ncc(C(=O)c2cnc(-c3ccccc3)n(Cc3ccccc3)c2=O)c1O` [Compound 20, 5-[(1-ethyl-5-hydroxy-1H-pyrazol-4-yl)carbonyl]-2-phenyl-3-(phenylmethyl)-4(3H)-pyrimidinone] gave a pest or weed control at 125 g/ha ([1]; post-emergence, Postemergence, visual injury, 0 to 100 scale (0 no effect, 100 complete control), approx. ten days, read-out: Barnyardgrass plant response rating) of 0%, a pest or weed control at 500 g/ha ([1]; post-emergence, Postemergence, 0 to 100 scale, 0 = no effect, 100 = complete control, approx. ten days, read-out: Plant response rating, Barnyardgrass) of 10% and a pest or weed control at 125 g/ha ([1]; pre-emergence, Preemergence, 0 to 100 scale, 0 = no effect, 100 = complete control, read-out: Plant response rating, Barnyardgrass) of 0%. The pest or weed control at 500 g/ha ([1]; pre-emergence, Preemergence, visual injury, 0 to 100 scale (0 no effect, 100 complete control), approx. ten days, read-out: Plant response rating, Barnyardgrass) was 20%, the plant injury at 125 g/ha ([2]; post-emergence, Postemergence, 125 g ai/ha, visual injury, 0 to 100 scale (0 no effect, 100 complete control), approx. ten days, read-out: Corn plant response rating) was 0% and the Corn plant response rating (crop injury, 0 = no effect, 100 = complete kill) at 500 g/ha ([2]; post-emergence, Postemergence, 0 to 100 scale, 0 = no effect, 100 = complete control, approx. ten days) was 10%. The Corn plant response rating (crop injury, 0 = no effect, 100 = complete kill) at 125 g/ha ([2]; pre-emergence, Preemergence, 125 g ai/ha, 0 to 100 scale, 0 = no effect, 100 = complete control) was 0%, the Corn plant response rating (crop injury, 0 = no effect, 100 = complete kill) at 500 g/ha ([2]; pre-emergence, Preemergence, visual injury, 0 to 100 scale (0 no effect, 100 complete control), approx. ten days) was 0% and the pest or weed control at 125 g/ha ([3]; post-emergence, Postemergence, visual injury, 0 to 100 scale (0 no effect, 100 complete control), approx. ten days, read-out: Foxtail, Giant plant response rating) was 0%. It also gave a pest or weed control at 500 g/ha ([3]; post-emergence, Postemergence, 0 to 100 scale, 0 = no effect, 100 = complete control, approx. ten days, read-out: Plant response rating, Foxtail, Giant) of 0%, a pest or weed control at 125 g/ha ([3]; pre-emergence, Preemergence, 0 to 100 scale, 0 = no effect, 100 = complete control, read-out: Plant response rating, Foxtail, Giant) of 0% and a pest or weed control at 500 g/ha ([3]; pre-emergence, Preemergence, visual injury, 0 to 100 scale (0 no effect, 100 complete control), approx. ten days, read-out: Plant response rating, Foxtail, Giant) of 20%. For the same compound, the pest or weed control at 125 g/ha ([4]; post-emergence, Postemergence, visual injury, 0 to 100 scale (0 no effect, 100 complete control), approx. ten days, read-out: Crabgrass, Large plant response rating) was 0%, the pest or weed control at 500 g/ha ([4]; post-emergence, Postemergence, 0 to 100 scale, 0 = no effect, 100 = complete control, approx. ten days, read-out: Plant response rating, Crabgrass, Large) was 10% and the pest or weed control at 125 g/ha ([4]; pre-emergence, Preemergence, 0 to 100 scale, 0 = no effect, 100 = complete control, read-out: Plant response rating, Crabgrass, Large) was 0%. It also gave a pest or weed control at 500 g/ha ([4]; pre-emergence, Preemergence, visual injury, 0 to 100 scale (0 no effect, 100 complete control), approx. ten days, read-out: Plant response rating, Crabgrass, Large) of 30%, a pest or weed control at 125 g/ha ([5]; post-emergence, Postemergence, visual injury, 0 to 100 scale (0 no effect, 100 complete control), approx. ten days, read-out: Morningglory plant response rating) of 0% and a pest or weed control at 500 g/ha ([5]; post-emergence, Postemergence, 0 to 100 scale, 0 = no effect, 100 = complete control, approx. ten days, read-out: Plant response rating, Morningglory) of 10%. It also gave a pest or weed control at 125 g/ha ([5]; pre-emergence, Preemergence, 0 to 100 scale, 0 = no effect, 100 = complete control, read-out: Plant response rating, Morningglory) of 0%, a pest or weed control at 500 g/ha ([5]; pre-emergence, Preemergence, visual injury, 0 to 100 scale (0 no effect, 100 complete control), approx. ten days, read-out: Plant response rating, Morningglory) of 0% and a pest or weed control at 125 g/ha ([6]; post-emergence, Postemergence, visual injury, 0 to 100 scale (0 no effect, 100 complete control), approx. ten days, read-out: Pigweed plant response rating) of 10%. For the same compound, the pest or weed control at 500 g/ha ([6]; post-emergence, Postemergence, 500 g ai/ha, 0 to 100 scale, 0 = no effect, 100 = complete control, approx. ten days, read-out: Plant response rating, Pigweed) was 50%, the pest or weed control at 125 g/ha ([6]; pre-emergence, Preemergence, 0 to 100 scale, 0 = no effect, 100 = complete control, read-out: Plant response rating, Pigweed) was 0% and the pest or weed control at 125 g/ha ([7]; post-emergence, Postemergence, visual injury, 0 to 100 scale (0 no effect, 100 complete control), approx. ten days, read-out: Velvetleaf plant response rating) was 20%. The pest or weed control at 500 g/ha ([7]; post-emergence, Postemergence, 0 to 100 scale, 0 = no effect, 100 = complete control, approx. ten days, read-out: Plant response rating, Velvetleaf) was 70%, the pest or weed control at 125 g/ha ([7]; pre-emergence, Preemergence, 0 to 100 scale, 0 = no effect, 100 = complete control, read-out: Plant response rating, Velvetleaf) was 0% and the pest or weed control at 500 g/ha ([7]; pre-emergence, Preemergence, visual injury, 0 to 100 scale (0 no effect, 100 complete control), approx. ten days, read-out: Plant response rating, Velvetleaf) was 50%. For the same compound, the plant injury at 125 g/ha ([8]; post-emergence, Postemergence, visual injury, 0 to 100 scale (0 no effect, 100 complete control), approx. ten days, read-out: Wheat plant response rating) was 0%, the plant injury at 500 g/ha ([8]; post-emergence, Postemergence, 0 to 100 scale, 0 = no effect, 100 = complete control, approx. ten days, read-out: Plant response rating, Wheat) was 0% and the plant injury at 125 g/ha ([8]; pre-emergence, Preemergence, 0 to 100 scale, 0 = no effect, 100 = complete control, read-out: Plant response rating, Wheat) was 0%. It also gave a plant injury at 500 g/ha ([8]; pre-emergence, Preemergence, visual injury, 0 to 100 scale (0 no effect, 100 complete control), approx. ten days, read-out: Plant response rating, Wheat) of 0%, a pest or weed control at 250 g/ha ([9]; 250 g ai/ha, flooded paddy test, visual rating on 0 to 100 scale (0 no effect, 100 complete control) after 13 to 15 days, read-out: Plant response rating, Flood, Barnyardgrass) of 0% and a pest or weed control at 31 g/ha ([9]; Flood (flooded paddy test), 31 g ai/ha, scale of 0 to 100 where 0 is no effect and 100 is complete control, 13 to 15 days, read-out: Plant response rating, Barnyardgrass) of 0%. It also gave a pest or weed control at 62 g/ha ([9]; Flood (flooded paddy test), 62 g ai/ha, scale 0 to 100, 0 is no effect, 100 is complete control, 13 to 15 days, read-out: Plant response rating, Barnyardgrass) of 0%, a pest or weed control at 125 g/ha ([9]; Flood (flooded paddy test), 125 g ai/ha, scale 0 to 100, 0 is no effect, 100 is complete control, 13 to 15 days, read-out: Plant response rating, Barnyardgrass) of 0% and a pest or weed control at 250 g/ha ([10]; 250 g ai/ha, flooded paddy test, visual rating on 0 to 100 scale (0 no effect, 100 complete control) after 13 to 15 days, read-out: Plant response rating, Flood, Ducksalad) of 75%. It also gave a pest or weed control at 31 g/ha ([10]; Flood (flooded paddy test), 31 g ai/ha, scale of 0 to 100 where 0 is no effect and 100 is complete control, 13 to 15 days, read-out: Plant response rating, Ducksalad) of 60%, a pest or weed control at 62 g/ha ([10]; Flood (flooded paddy test), 62 g ai/ha, scale 0 to 100, 0 is no effect, 100 is complete control, 13 to 15 days, read-out: Plant response rating, Ducksalad) of 60% and a pest or weed control at 125 g/ha ([10]; Flood (flooded paddy test), 125 g ai/ha, scale 0 to 100, 0 is no effect, 100 is complete control, 13 to 15 days, read-out: Plant response rating, Ducksalad) of 65%. It also gave a plant injury at 250 g/ha ([11]; 250 g ai/ha, flooded paddy test, visual rating on 0 to 100 scale (0 no effect, 100 complete control) after 13 to 15 days, read-out: Plant response rating, Flood, Rice) of 15%, a plant injury at 31 g/ha ([11]; Flood (flooded paddy test), 31 g ai/ha, scale of 0 to 100 where 0 is no effect and 100 is complete control, 13 to 15 days, read-out: Plant response rating, Rice) of 0% and a plant injury at 62 g/ha ([11]; Flood (flooded paddy test), 62 g ai/ha, scale 0 to 100, 0 is no effect, 100 is complete control, 13 to 15 days, read-out: Plant response rating, Rice) of 0%. It also gave a plant injury at 125 g/ha ([11]; Flood (flooded paddy test), 125 g ai/ha, scale 0 to 100, 0 is no effect, 100 is complete control, 13 to 15 days, read-out: Plant response rating, Rice) of 0%, a pest or weed control at 250 g/ha ([12]; 250 g ai/ha, flooded paddy test, visual rating on 0 to 100 scale (0 no effect, 100 complete control) after 13 to 15 days, read-out: Plant response rating, Flood, Sedge, Umbrella) of 60% and a pest or weed control at 31 g/ha ([12]; Flood (flooded paddy test), 31 g ai/ha, scale of 0 to 100 where 0 is no effect and 100 is complete control, 13 to 15 days, read-out: Plant response rating, Sedge, Umbrella) of 0%. For the same compound, the pest or weed control at 62 g/ha ([12]; Flood (flooded paddy test), 62 g ai/ha, scale 0 to 100, 0 is no effect, 100 is complete control, 13 to 15 days, read-out: Plant response rating, Sedge, Umbrella) was 40% and the pest or weed control at 125 g/ha ([12]; Flood (flooded paddy test), 125 g ai/ha, scale 0 to 100, 0 is no effect, 100 is complete control, 13 to 15 days, read-out: Plant response rating, Sedge, Umbrella) was 50%.
